{"source": "the supplement of paper PMC10307832", "assay_in_all_cases": "relative viability (nuclei count vs DMSO), 5 days (fraction); higher = more cells survive", "key": {"Vismodegib + Olaparib": {"compound": "CS(=O)(=O)c1ccc(C(=O)Nc2ccc(Cl)c(-c3ccccn3)c2)c(Cl)c1 [Vismodegib] + O=C(c1cc(Cc2n[nH]c(=O)c3ccccc23)ccc1F)N1CCN(C(=O)C2CC2)CC1 [Olaparib] (partner 8 µM)", "method_in_brief": "(§1)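 Each reported value is a median over duplicate plates. It expresses relative viability: treated-well nuclei count divided by vehicle-well nuclei count. Lung cancer cell lines in 1536-well plates were dosed by pin tool a day after seeding, alone with one drug or with a fixed anchor-drug dose plus five library-drug doses (not always all listed) in √10 steps, and nuclei were counted after 5 days.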"}, "Ruxolitinib + Luminespib": {"compound": "N#CC[C@H](C1CCCC1)n1cc(-c2ncnc3[nH]ccc23)cn1 [Ruxolitinib] + CCNC(=O)c1noc(-c2cc(C(C)C)c(O)cc2O)c1-c1ccc(CN2CCOCC2)cc1 [Luminespib] (partner 0.01 µM)", "method_in_brief": "as §1"}, "VE-821 + Lapatinib": {"compound": "CS(=O)(=O)c1ccc(-c2cnc(N)c(C(=O)Nc3ccccc3)n2)cc1 [VE-821] + CS(=O)(=O)CCNCc1ccc(-c2ccc3ncnc(Nc4ccc(OCc5cccc(F)c5)c(Cl)c4)c3c2)o1 [Lapatinib] (partner 2 µM)", "method_in_brief": "as §1"}, "Ruxolitinib + Dasatinib": {"compound": "N#CC[C@H](C1CCCC1)n1cc(-c2ncnc3[nH]ccc23)cn1 [Ruxolitinib] + Cc1nc(Nc2ncc(C(=O)Nc3c(C)cccc3Cl)s2)cc(N2CCN(CCO)CC2)n1 [Dasatinib] (partner 0.075 µM)", "method_in_brief": "as §1"}}, "data": [{"cell line": "UMC-11", "values": [{"measurement": "relative viability", "setting": "Vismodegib + Olaparib; first compound 0.08 µM", "result": 0.416}, {"measurement": "relative viability", "setting": "Vismodegib + Olaparib; first compound 0.253 µM", "result": 0.361}, {"measurement": "relative viability", "setting": "Vismodegib + Olaparib; first compound 0.8 µM", "result": 0.376}, {"measurement": "relative viability", "setting": "Vismodegib + Olaparib; first compound 2.53 µM", "result": 0.473}, {"measurement": "relative viability", "setting": "Vismodegib + Olaparib; first compound 8 µM", "result": 0.373}, {"measurement": "relative viability", "setting": "Ruxolitinib + Luminespib; first compound 0.08 µM", "result": 1.04}, {"measurement": "relative viability", "setting": "Ruxolitinib + Luminespib; first compound 0.253 µM", "result": 1.03}, {"measurement": "relative viability", "setting": "Ruxolitinib + Luminespib; first compound 0.8 µM", "result": 1.26}, {"measurement": "relative viability", "setting": "Ruxolitinib + Luminespib; first compound 2.53 µM", "result": 1.1}, {"measurement": "relative viability", "setting": "Ruxolitinib + Luminespib; first compound 8 µM", "result": 0.978}, {"measurement": "relative viability", "setting": "VE-821 + Lapatinib; first compound 0.08 µM", "result": 1.23}, {"measurement": "relative viability", "setting": "VE-821 + Lapatinib; first compound 0.253 µM", "result": 0.845}, {"measurement": "relative viability", "setting": "VE-821 + Lapatinib; first compound 0.8 µM", "result": 0.916}, {"measurement": "relative viability", "setting": "VE-821 + Lapatinib; first compound 2.53 µM", "result": 1.12}, {"measurement": "relative viability", "setting": "VE-821 + Lapatinib; first compound 8 µM", "result": 0.644}, {"measurement": "relative viability", "setting": "Ruxolitinib + Dasatinib; first compound 0.08 µM", "result": 0.437}, {"measurement": "relative viability", "setting": "Ruxolitinib + Dasatinib; first compound 0.253 µM", "result": 0.492}, {"measurement": "relative viability", "setting": "Ruxolitinib + Dasatinib; first compound 0.8 µM", "result": 0.524}, {"measurement": "relative viability", "setting": "Ruxolitinib + Dasatinib; first compound 2.53 µM", "result": 0.508}, {"measurement": "relative viability", "setting": "Ruxolitinib + Dasatinib; first compound 8 µM", "result": 0.512}]}]}
